# Measured values from ChEMBL document CHEMBL5154944, “Discovery of Aryloxyphenyl-Heptapeptide Hybrids as Potent and Selective Matrix Metalloproteinase-2 Inhibitors for the Treatment of Idiopathic Pulmonary Fibrosis” (J Med Chem, 2022).
# Active and inactive are the calls of the source. The rule behind the calls is not given here. Non-standard residues stand in square brackets, D forms with d. Residues, ends and D or L forms follow the SMILES beside them. *: point of attachment. Benzoyl(4-OPh(4-CONH2)) = NC(=O)c1ccc(Oc2ccc(C(=O)*)cc2)cc1; NMeE = CN[C@@H](CCC(=O)O)C(=O)O; β3hP = O=C(O)C[C@@H]1CCCN1; Dab = NCC[C@H](N)C(=O)O; Ava = NCCCCC(=O)O
# Columns and labels:
# [1] = Free drug concentration in C57BL/6N mouse plasma at 0.03 mg/kg/day, sc via osmotic pumps dosed for 14 days; type: ADME, organism-based; settings: in vivo, 336 h, time 14 day
# [2] = Solubility of the compound in acetate buffer at pH 4.0 by HPLC analysis; type: physicochemical
# Neutrophil collagenase = Neutrophil collagenase (Homo sapiens, UniProt P22894)
# [3] = Clearance in fasted Sprague-Dawley rat at 1 mg/kg, iv by LC-MS/MS analysis; type: ADME, organism-based; settings: in vivo
# Matrilysin = target: T1, Matrilysin (Homo sapiens, UniProt P09237)
# T1 sequence (P09237 whole entry): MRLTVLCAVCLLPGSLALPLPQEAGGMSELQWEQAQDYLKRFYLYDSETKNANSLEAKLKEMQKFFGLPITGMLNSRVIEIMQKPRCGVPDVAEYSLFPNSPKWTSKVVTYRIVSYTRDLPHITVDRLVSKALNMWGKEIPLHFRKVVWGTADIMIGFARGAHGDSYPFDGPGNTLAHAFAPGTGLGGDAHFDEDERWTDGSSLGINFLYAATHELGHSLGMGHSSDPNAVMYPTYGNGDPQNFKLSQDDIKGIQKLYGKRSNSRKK
# [4] = Protein binding in human serum assessed as free fraction at 10 ug/ml incubated for 6 hrs by equilibrium dialysis based LC-MS/MS assay; type: ADME, cell-free; settings: at 10 µg/mL
# CYP2D6 = CYP2D6 (Homo sapiens, UniProt P10635); experiment: Inhibition of CYP2D6 in human liver microsomes at 10 uM using bufuralol as substrate preincubated for 5 mins followed by addition of NADPH measured after 10 mins by LC/MS/MS analysis relative to control; type: ADME, Microsome; settings: probe bufuralol, time 15 min
# [5] = Solubility of the compound in phosphate buffer at pH 9 by HPLC analysis; type: physicochemical
# [6] = Protein binding in mouse serum assessed as free fraction at 10 ug/ml incubated for 6 hrs by equilibrium dialysis based LC-MS/MS assay; type: ADME, cell-free; settings: at 10 µg/mL
# physchem [7] = settings: phosphate buffer, pH 7.4
# CYP2C9 = CYP2C9 (Homo sapiens, UniProt P11712); experiment: Inhibition of CYP2C9 in human liver microsomes at 10 uM using diclofenac as substrate preincubated for 5 mins followed by addition of NADPH measured after 5 mins by LC/MS/MS analysis relative to control; type: ADME, Microsome; settings: probe diclofenac, time 10 min
# [8] = Volume of distribution at steady state in fasted Sprague-Dawley rat at 1 mg/kg, iv by LC-MS/MS analysis; type: ADME, organism-based; settings: in vivo, read-out: Vdss
# Mus musculus [9] = experiment: Antifibrotic activity in C57BL/6N mouse model of bleomycin-induced idiopathic pulmonary fibrosis assessed as reduction of total collagen content at 0.03 mg/kg/day, sc via osmotic pumps dosed for 14 days; type: functional, organism-based; settings: time 14.0 day
# [10] = Chemical stability of the compound in acetate buffer at pH 4.0 assessed as residual rate incubated for 2 weeks by HPLC analysis; type: physicochemical; settings: read-out: Stability
# [11] = Metabolic stability in human hepatocytes assessed as parent compound remaining measured after 1 hr by LC-MS/MS analysis; type: ADME, cell-based, Hepatocyte; settings: read-out: Stability
# [12] = Metabolic stability in rat hepatocytes assessed as parent compound remaining incubated for 1 hr by LC-MS/MS; type: ADME, cell-based, Hepatocyte; settings: read-out: Stability
# CYP1A2 = CYP1A2 (Homo sapiens, UniProt P05177); experiment: Inhibition of CYP1A2 in human liver microsomes at 10 uM using phenacetin as substrate for 5 mins followed by NADPH addition and measured after 10 mins by LC/MS/MS analysis relative to control; type: ADME, Microsome; settings: probe phenacetin, time 15 min
# [13] = target: Voltage-gated inwardly rectifying potassium channel KCNH2 (Homo sapiens, UniProt Q12809); experiment: Inhibition of human ERG expressed in CHO cells by Qpatch-clamp method; type: toxicity, cell-based
# Stromelysin-1 = Stromelysin-1 (Homo sapiens, UniProt P08254); experiment: Inhibition of recombinant human MMP3 using MOCAc-Lys-Pro-Leu-Gly-Leu-A2pr(Dnp)-[…] as substrate preincubated for 15 mins followed by substrate addition by fluroscence based assay
# physchem [14] = settings: phosphate buffer, pH 9
# HepG2 [15] = experiment: Cytotoxicity against human HepG2 cells assessed as reduction in cell viability at 10 uM after 48 hrs by CCK8 assay; type: functional
# [16] = Half life in fasted Sprague-Dawley rat at 1 mg/kg, iv by LC-MS/MS analysis; type: ADME, organism-based; settings: in vivo
# physchem [17] = settings: buffer, pH 7.4
# HepG2 [18] = experiment: Cytotoxicity against human HepG2 cells assessed as reduction in cell viability at 50 uM after 48 hrs by CCK8 assay; type: functional
# [19] = Metabolic stability in human serum assessed as parent compound remaining incubated for 6 hrs by LC-MS/MS analysis; type: ADME, cell-free; settings: read-out: Stability
# [20] = target: Matrix metalloproteinase-9 (Homo sapiens, UniProt P14780)
# Mus musculus [21] = experiment: Antifibrotic activity in C57BL/6N mouse model of bleomycin-induced idiopathic pulmonary fibrosis assessed as reduction of total collagen content at 0.03 to 1 mg/kg/day, sc via osmotic pumps dosed for 14 days; type: functional, organism-based; settings: dose 0.03-1 mg/kg/day, time 14.0 day
# CYP3A4 = CYP3A4 (Homo sapiens, UniProt P08684); experiment: Inhibition of CYP3A4 in human liver microsomes at 10 uM using midazolam as substrate preincubated for 5 mins followed by addition of NADPH measured after 5 mins by LC/MS/MS analysis relative to control; type: ADME, Microsome; settings: probe midazolam
# Interstitial collagenase = target: T2, Interstitial collagenase (Homo sapiens, UniProt P03956); experiment: Inhibition of recombinant human MMP1 using MOCAc-Lys-Pro-Leu-Gly-Leu-A2pr(Dnp)-Ala-Arg-NH2 as substrate preincubated for 15 mins followed by substrate addition by fluroscence based assay
# T2 sequence (P03956 whole entry): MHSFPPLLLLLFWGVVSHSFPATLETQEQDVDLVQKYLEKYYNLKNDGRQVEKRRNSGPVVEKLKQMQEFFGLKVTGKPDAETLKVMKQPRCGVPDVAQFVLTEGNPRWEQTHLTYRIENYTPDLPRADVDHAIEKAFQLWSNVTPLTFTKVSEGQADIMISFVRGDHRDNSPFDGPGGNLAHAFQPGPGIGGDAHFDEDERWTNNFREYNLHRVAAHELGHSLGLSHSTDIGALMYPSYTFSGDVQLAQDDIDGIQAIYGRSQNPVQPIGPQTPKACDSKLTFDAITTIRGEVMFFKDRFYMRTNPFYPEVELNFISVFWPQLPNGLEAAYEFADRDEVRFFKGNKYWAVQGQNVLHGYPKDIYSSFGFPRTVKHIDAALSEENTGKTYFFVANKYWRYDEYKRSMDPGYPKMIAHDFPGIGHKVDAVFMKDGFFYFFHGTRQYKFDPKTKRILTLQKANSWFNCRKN
# [22] = target: Matrix metalloproteinase-14 (Homo sapiens, UniProt P50281); experiment: Inhibition of recombinant human MMP14 using MOCAc-Lys-Pro-Leu-Gly-Leu-A2pr(Dnp)-Ala-Arg-NH2 as substrate preincubated for 15 mins followed by substrate addition by fluroscence based assay
# CYP2C19 = CYP2C19 (Homo sapiens, UniProt P33261); experiment: Inhibition of CYP2C19 in human liver microsomes at 10 uM using mephenytoin as substrate preincubated for 5 mins followed by addition of NADPH measured after 10 mins by LC/MS/MS analysis relative to control; type: ADME, Microsome; settings: probe mephenytoin, time 15 min
# [23] = Solubility of the compound in phosphate buffer at pH 7.4 by HPLC analysis; type: physicochemical
# CYP1A2, sequence (P05177 whole entry): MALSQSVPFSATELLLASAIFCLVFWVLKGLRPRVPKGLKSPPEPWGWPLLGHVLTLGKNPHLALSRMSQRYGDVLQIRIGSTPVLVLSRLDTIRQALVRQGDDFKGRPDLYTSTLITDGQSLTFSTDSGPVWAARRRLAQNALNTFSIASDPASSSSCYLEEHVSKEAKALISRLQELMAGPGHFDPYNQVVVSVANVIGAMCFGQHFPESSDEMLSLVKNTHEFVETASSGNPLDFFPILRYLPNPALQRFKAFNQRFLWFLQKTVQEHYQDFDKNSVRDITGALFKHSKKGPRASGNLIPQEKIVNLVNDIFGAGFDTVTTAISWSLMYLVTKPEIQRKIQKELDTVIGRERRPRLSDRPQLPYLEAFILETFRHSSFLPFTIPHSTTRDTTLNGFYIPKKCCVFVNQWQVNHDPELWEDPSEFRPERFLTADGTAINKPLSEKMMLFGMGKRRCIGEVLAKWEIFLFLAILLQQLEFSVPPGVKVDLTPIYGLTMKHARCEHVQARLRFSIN
# CYP2C9, sequence (P11712 whole entry): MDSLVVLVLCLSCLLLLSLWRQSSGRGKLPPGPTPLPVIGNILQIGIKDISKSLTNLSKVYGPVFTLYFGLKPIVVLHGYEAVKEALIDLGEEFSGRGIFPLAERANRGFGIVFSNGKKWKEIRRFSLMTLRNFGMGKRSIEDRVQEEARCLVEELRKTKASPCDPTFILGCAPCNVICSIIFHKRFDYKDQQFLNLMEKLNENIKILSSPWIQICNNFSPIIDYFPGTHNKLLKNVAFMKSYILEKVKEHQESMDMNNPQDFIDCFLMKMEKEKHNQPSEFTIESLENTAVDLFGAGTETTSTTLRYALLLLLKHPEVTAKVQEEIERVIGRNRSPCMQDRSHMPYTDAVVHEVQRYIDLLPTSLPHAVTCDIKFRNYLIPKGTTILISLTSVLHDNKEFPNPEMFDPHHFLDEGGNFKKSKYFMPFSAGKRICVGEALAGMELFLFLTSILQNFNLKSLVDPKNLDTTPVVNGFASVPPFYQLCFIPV
# CYP2D6, sequence (P10635 whole entry): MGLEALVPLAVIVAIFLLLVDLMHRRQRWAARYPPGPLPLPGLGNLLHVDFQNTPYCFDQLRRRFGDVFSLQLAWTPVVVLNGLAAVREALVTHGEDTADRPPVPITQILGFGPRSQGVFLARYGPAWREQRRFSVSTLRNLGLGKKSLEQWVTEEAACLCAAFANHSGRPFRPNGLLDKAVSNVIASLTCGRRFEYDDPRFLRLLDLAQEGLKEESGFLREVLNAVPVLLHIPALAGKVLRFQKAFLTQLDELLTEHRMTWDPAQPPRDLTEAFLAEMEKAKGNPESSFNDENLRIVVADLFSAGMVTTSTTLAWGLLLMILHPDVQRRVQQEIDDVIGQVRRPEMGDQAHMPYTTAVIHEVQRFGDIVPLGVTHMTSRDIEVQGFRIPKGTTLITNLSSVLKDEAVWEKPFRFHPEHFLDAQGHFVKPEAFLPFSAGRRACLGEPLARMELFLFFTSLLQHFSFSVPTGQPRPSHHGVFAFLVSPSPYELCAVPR
# Voltage-gated inwardly rectifying potassium channel KCNH2, sequence (Q12809 whole entry): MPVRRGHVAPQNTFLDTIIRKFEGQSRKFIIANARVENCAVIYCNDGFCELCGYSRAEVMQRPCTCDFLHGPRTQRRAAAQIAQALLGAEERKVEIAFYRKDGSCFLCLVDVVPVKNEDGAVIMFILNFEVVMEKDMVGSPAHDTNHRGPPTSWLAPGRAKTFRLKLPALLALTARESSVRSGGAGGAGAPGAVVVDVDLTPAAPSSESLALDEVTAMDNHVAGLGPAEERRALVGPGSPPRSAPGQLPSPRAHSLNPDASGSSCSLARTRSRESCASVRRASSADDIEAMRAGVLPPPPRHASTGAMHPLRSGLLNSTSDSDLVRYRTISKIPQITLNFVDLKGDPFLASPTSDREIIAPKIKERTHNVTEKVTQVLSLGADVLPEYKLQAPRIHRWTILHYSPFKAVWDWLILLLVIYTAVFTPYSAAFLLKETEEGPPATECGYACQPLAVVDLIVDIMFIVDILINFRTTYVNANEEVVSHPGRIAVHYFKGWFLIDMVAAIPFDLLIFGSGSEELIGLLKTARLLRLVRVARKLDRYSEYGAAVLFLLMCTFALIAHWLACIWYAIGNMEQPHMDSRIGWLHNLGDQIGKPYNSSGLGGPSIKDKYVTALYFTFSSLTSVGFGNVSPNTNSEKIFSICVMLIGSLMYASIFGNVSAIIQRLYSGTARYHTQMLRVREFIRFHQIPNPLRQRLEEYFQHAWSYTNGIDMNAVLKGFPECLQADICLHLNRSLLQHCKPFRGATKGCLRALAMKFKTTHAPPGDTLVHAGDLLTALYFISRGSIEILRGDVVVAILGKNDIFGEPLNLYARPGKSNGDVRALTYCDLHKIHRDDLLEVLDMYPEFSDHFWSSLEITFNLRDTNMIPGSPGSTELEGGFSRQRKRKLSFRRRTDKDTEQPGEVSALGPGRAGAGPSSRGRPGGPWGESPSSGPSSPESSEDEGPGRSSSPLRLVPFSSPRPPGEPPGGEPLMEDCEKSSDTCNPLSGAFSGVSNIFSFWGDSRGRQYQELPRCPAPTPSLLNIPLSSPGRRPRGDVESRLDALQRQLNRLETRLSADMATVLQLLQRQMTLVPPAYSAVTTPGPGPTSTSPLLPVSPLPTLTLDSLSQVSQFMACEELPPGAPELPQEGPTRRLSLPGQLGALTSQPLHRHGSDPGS
# Matrix metalloproteinase-9, sequence (P14780 whole entry): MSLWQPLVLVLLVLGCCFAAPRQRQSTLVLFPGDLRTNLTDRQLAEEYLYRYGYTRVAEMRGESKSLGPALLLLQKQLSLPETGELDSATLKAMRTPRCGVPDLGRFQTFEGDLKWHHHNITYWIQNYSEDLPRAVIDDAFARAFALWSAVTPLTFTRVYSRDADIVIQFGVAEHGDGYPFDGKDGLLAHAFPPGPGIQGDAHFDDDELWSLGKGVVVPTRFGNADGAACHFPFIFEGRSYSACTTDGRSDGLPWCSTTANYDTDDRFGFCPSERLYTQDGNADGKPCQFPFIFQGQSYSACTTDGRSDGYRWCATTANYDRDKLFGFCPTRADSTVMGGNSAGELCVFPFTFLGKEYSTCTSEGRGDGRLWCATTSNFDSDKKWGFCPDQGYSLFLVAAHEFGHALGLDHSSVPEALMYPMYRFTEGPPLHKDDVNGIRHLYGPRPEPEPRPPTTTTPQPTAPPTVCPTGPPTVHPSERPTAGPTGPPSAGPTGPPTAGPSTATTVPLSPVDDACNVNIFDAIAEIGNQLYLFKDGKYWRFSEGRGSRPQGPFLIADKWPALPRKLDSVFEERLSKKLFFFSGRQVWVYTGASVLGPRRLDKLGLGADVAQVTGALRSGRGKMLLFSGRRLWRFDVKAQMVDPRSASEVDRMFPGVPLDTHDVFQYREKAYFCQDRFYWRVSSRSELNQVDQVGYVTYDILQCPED
# CYP3A4, sequence (P08684 whole entry): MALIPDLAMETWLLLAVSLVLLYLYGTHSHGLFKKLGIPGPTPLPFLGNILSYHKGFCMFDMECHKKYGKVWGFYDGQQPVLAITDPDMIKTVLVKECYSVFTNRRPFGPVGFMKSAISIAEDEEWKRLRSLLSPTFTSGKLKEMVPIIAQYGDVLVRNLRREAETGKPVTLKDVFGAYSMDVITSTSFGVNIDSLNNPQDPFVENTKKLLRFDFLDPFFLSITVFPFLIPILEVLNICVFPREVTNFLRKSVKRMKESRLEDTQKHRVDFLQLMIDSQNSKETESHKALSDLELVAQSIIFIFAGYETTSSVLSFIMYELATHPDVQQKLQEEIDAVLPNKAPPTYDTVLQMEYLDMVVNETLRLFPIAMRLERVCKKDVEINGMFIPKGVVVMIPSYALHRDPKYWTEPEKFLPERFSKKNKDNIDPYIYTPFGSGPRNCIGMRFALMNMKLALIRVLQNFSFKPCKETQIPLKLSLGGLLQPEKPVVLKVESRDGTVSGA
# CYP2C19, sequence (P33261 whole entry): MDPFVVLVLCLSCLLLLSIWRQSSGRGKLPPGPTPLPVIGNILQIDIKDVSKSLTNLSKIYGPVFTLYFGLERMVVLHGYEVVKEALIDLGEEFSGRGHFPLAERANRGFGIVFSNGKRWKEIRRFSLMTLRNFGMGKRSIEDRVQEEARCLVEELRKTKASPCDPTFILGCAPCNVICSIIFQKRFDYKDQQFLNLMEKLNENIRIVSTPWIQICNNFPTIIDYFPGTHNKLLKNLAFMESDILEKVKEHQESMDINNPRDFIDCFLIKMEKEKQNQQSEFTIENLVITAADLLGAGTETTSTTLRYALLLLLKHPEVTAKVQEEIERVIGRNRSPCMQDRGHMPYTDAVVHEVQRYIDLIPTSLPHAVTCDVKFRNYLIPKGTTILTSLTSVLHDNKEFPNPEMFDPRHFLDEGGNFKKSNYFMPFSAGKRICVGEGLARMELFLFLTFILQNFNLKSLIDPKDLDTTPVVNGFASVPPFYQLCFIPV
# Neutrophil collagenase, sequence (P22894 whole entry): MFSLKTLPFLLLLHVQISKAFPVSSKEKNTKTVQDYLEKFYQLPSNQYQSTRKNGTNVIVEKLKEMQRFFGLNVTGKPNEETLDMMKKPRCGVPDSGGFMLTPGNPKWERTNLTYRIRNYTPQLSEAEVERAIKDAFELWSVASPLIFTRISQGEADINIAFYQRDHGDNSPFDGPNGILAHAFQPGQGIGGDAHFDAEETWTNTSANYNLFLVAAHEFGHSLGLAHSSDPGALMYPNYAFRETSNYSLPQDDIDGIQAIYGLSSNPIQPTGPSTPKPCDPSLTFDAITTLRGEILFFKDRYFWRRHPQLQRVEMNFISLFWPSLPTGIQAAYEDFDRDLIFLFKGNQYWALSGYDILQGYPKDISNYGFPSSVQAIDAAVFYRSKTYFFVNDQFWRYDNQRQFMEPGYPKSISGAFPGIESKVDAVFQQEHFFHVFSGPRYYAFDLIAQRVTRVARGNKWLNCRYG
smiles,measurement,setting,value
CC(C)C[C@H](NC(=O)[C@H](CCN)NC(=O)[C@H](CC(=O)O)NC(=O)[C@H](CCC(=O)O)NC(=O)CCCCNC(=O)c1ccc(Oc2ccc(C(N)=O)cc2)cc1)C(=O)N(C)[C@@H](CCC(=O)O)C(=O)N1CCC[C@H]1CC(N)=O ({Benzoyl(4-OPh(4-CONH2))-Ava}-ED[Dab]L[NMeE][β3hP]-NH2),Cp(f),[1],0.48 nM
same,solubility,[2],> 18.2 mg/mL
same,IC50,Neutrophil collagenase,3.72 µM
same,clearance,[3],11.7 mL/min/kg
same,IC50,Matrilysin,> 10 µM
same,"fraction unbound at 6 h, 10 ug/ml",[4],0.552
same,"inhibition at 10 min, 10 µM",CYP2D6,-2.5%
same,solubility,[5],> 167 mg/mL
same,"fraction unbound at 6 h, 10 ug/ml",[6],0.518
same,remaining at 336 h,physchem [7],95.1%
same,"inhibition at 5 min, 10 µM",CYP2C9,1.6%
same,Vd,[8],0.233 L/kg
same,Activity,Mus musculus [9],Active
same,remaining at 336 h,[10],88%
same,remaining at 1 h,[11],101%
same,"remaining at 1 h, 1 µM",[12],98.2%
same,"inhibition at […], 10 µM",CYP1A2,-4.2%
same,IC50,[13],> 100 µM
same,IC50,Stromelysin-1,> 10 µM
same,remaining at 336 h,physchem [14],95.4%
same,Activity,HepG2 [15],1.1%
same,half-life,[16],14 min
same,logD,physchem [17],-0.21
same,Activity,HepG2 [18],-0.9%
same,remaining at 6 h,[19],110%
same,IC50,[20],> 8.51 µM
same,Activity,Mus musculus [21],Active
same,"inhibition at 5 min, 10 µM",CYP3A4,-2.4%
same,IC50,Interstitial collagenase,> 10 µM
same,IC50,[22],2.22 µM
same,"inhibition at 10 min, 10 µM",CYP2C19,-9.1%
same,solubility,[23],> 24.2 mg/mL
